The record followed here is patent EP0005658A1, “Peptide derivatives analogue to encephalines, process for their preparation and their therapeutical application” (Laboratoire le Brun S.A. Société dite:, priority 1978, dated 1979).

SMILES strings stand for the structures. Values joined by “and” are separate entries in the source; they are usually repeats but may differ in a detail not shown here. Equal entries are not always repeated.

Data set [1] has as its system rat. In words: Castor oil diarrhoea test in the rat. Format: in vivo.
Data set [2] concerns rat. In words: Catalepsy in the rat (psychotropic action). Format: in vivo. The source says: Elle a été évaluée par la recherche d'une catalepsie chez le rat.
Ces essais ont été réalisés avec des rats femelles indexes d'organisées pathogènes spécifiques pesant de 200 à 220 g.
L'effet cataleptique est mesuré en suspendant le rat par ses pattes antérieures au rebord de la cage d'expérience : un rat cataleptique reste dans cette position alors qu'un animal normal l'abandonne aussitôt, voire ne la prend pas du tout.
La catalepsie est appréciée de la façon suivante: • 0 : pas de catalepsie • 1 : catalepsie liminaire • 2 : catalepsie d'intensité moyenne • […] : catalepsie très prononcée
Les animaux sont traités par voie sous cutanée.
Les expériences ont été effectuées à l'aveugle, l'observateur ignorant les traitements.

In a further data set the target is iléon de cobaye (Cavia porcellus, UniProt A0ACM8Q262). In words: cell-based. The data set is classed as cell-based. The following applies: for Activité Morphine =100: activity relative to morphine (= 100) in concomitant tests. The method, then:
I. Action analgésique par rapport à la morphine comme substance de référence qui a été contrôlée • a) Sur organe isolé. - iléon de cobaye
On a utilisé la technique de stimulation transmu- rale de l'iléon de cobaye de PATON (W.D.M. PATON, "The rés- ponse of the guinea-pig ileum to electrical stimulation by coaxial electrodes" - J. Physiol. (London), 127, 40P-41P (1955) et PATON (W.D.M.) - Brit.J. Pharmacol. 11).
• - Les essais ont été réalisés dans une cuve de 35 ml irriguée par une solution de KREBS. • - Les stimulations électriques, supramaximales (6 par minute - […]) étaient ajustées à chaque essai. Courant rectangulaire - durée-0,5 milliseconde. • - Les concentrations des différents produits étudiés, ainsi que celles de la morphine qui a servi de corps de référence, sont exprimées en nanomoles (nM) par litre. • - Pour chaque concentration, le temps de contact a été de 3 minutes. Chaque essai était séparé du suivant par une période de 10 à 20 minutes. • - Les résultats sont exprimés en pourcentage d'inhibition de la concentration consécutive à la stimulation électri--que de l'iléon. On a ensuite calculé les doses actives 50 par la méthode de Parker et Waud (J. of pharmacology, 1971, 177, n°4) qui ont été comparées à celle de la morphine dans des essais concomitants.

The target of the next data set is Vas déferens de souris (Mus musculus, UniProt P32300). The experiment in a line: Transmural electrical stimulation of mouse vas deferens (Hughes and Kosterlitz). The data set is classed as cell-based. The following applies: contact time 3 minutes, read-out: % d'inhibition. The method, then: On a utilisé une technique de stimulation transmu- rale du canal différent de la souris, adaptée à celle décrite par HUCHES et KOSTERLITZ (J.HUGUES, H.W.KOSTERLITZ and Frances M.LESLIE, "Effect of morphine ou adrenergic transmission in the mouse vas deferens. Assessment of ago- nist and antagonist potencies of narcotic analgesics".-Br J. Pharmac. 53 371-381 (1975).
Vas déferens de souris, sequence (P32300 whole entry): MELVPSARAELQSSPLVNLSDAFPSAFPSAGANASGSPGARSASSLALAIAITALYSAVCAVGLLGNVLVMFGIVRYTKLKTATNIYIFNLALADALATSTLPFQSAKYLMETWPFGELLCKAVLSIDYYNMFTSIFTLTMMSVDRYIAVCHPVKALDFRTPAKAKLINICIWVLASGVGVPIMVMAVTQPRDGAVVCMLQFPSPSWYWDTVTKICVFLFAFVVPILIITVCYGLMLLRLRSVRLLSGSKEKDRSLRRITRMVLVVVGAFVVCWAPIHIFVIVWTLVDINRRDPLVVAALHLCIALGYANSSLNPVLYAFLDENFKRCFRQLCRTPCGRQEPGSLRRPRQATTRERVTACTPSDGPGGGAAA
• - Les essais ont été réalisés dans une cuve de 7 ml irriguée par une solution de KREBS. • - Les stimulations électriques, supramaximales (6 par minute) étaient ajustées à chaque essai. • - Les concentrations des différents produits étudiés sont exprimées en nM par litre. • - Pour chaque concentration le temps de contact a été de 3 minutes. Dans les cas où le maximum d'inhibition a été atteint en un temps plus court, le fait a été signalé. Chaque essai était séparé du suivant par une période de 10 à 20 minutes. • - Les résultats sont exprimés en pourcentage d'inhibition de la concentration consécutive à la stimulation électrique du canal déférent. On a ensuite calculé les doses actives 50 par la méthode de Parker & Wand (J.Pharm. Exper. Therap.96-99 (1949).

Data set [3] has as its target sites de liaison à haute et moyenne affinité de la leucine-enképhaline 3-R de membranes striatales de souris. In words: Competition with tritiated Leu-enkephalin binding on mouse striatal membranes. The conditions noted are these: displacement of a fixed concentration of Leucine-Enképhaline 3-H. The method, then:
On a déterminé le pouvoir compétiteur des dérivés de l'invention vis-à-vis des sites de liaison à haute et moyenne affinité de la leucine-enképhaline 3-R de membranes striatales de souris.
Les conditions de préparation des membranes et d'incubation ont été les mêmes que celles qui sont décrites dans Audigier et Coll. (C. Acad. Sciences plus Euro- pean J. of Pharmacol.).
Des concentrations croissantes des divers composés synthétisés ont été opposées à une concentration fixe de Leucine-Enképhaline 3-H et les déplacements observés ont permis dans chaque cas de déterminer une constante d'inhi- bition (Ki).

Data set [4] in a line: Acute toxicity in the mouse. Also on record: species or system souris. The conditions noted are these: in vivo, IV route, read-out: D.L. 5a. The method, then:
Les dérivés de formule générale I bénéficient d'une excellente tolérance et d'une faible toxicité qui a été plus particulièrement étudiée sur lés dérivés N° 12 et 13, qui ont fait l'objet d'une épreuve de toxicité aiguë chez la souris.
Les D.L. 5a obtenues sont respectivement de : • 725 ± 25 mg/kg par voie IV pour le dérivé.n° 12. • et 892 ± 31 mg/kg "" " pour le dérivé n° 13.

A further data set deals with souris. The experiment in a line: Hot plate test in the mouse (analgesia). The following applies: 10 mg/kg compared with morphine 1 mg/kg, taking molarities into account. In general terms: Thermal pain tests record how soon the animal reacts.
Setting [5] is: 2 heures after product, oral 3 mg/kg, 10 rats.
[6] abbreviates: 2 heures after product, oral 10 mg/kg, 10 rats (Codéine base: 20 rats).
Where [7] appears, read: 2 heures after product, oral 30 mg/kg, 10 rats.
Setting [8] is: 4 heures after product, oral 3 mg/kg, 10 rats.
Setting [9] is: 4 heures after product, oral 10 mg/kg, 10 rats (Codéine base: 20 rats).
Where [10] appears, read: 4 heures after product, oral 30 mg/kg, 10 rats.

iléon de cobaye, sequence (A0ACM8Q262 1-400): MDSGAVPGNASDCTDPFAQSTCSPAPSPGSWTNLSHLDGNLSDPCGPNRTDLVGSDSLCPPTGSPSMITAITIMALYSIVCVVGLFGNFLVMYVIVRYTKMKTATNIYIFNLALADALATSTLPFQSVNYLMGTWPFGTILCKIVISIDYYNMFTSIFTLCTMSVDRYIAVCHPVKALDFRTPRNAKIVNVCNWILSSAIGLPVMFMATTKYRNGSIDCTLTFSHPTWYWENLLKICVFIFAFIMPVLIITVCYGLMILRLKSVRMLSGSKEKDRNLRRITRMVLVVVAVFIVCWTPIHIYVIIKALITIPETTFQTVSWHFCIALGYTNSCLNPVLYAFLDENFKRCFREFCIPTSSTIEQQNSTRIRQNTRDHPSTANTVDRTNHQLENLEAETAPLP

In the case of `COc1ccc2c3c1O[C@H]1[C@@H](O)C=C[C@H]4[C@@H](C2)N(C)CC[C@@]341` [Codéine base, Codéine], the “Nombre d'animaux non diarrhéiques” value in the data set with rat [1] (setting [5]) was determined as 7; in the data set on rat [1] (setting [6]), 19; in the data set with rat [1] (setting [7]), 10; in the data set on rat [1] (setting [8]), 4; in the data set on rat [1] (setting [9]), 14; in the data set with rat [1] (setting [10]), 8.
Turning to `O=C(CCCN1CCC(O)(c2ccc(Cl)cc2)CC1)c1ccc(F)cc1` [Halopéridol], the ED50 with rat [2] (Rattus norvegicus, sc, catalepsy, subcutaneous route, female rats, read-out: D.A. 50/ sous cut.) was 0.2 mg/kg.
As to `CN1CC[C@]23c4c5ccc(O)c4O[C@H]2[C@@H](O)C=C[C@H]3[C@H]1C5` [Morphine], the “D.A. 50/ sous cut.” value in the data set on rat [2] (rat, in vivo, sc) is 2,5 mg/kg. For the same compound, the “Nombre d'animaux non diarrhéiques” value is 9 and 5 in the data set on rat [1] (rat, in vivo, po, 3 mg/kg); 10 and 8 in the data set on rat [1] (rat, in vivo, po, 10 mg/kg).
Consider `CSCC[C@H](NC(=O)[C@H](Cc1ccccc1)NC(=O)CNC(=O)[C@@H](C)NC(=O)[C@@H](N)Cc1ccc(O)cc1)C(=O)NCCNS(=O)(=O)c1cccc2c(N(C)C)cccc12` [Dérivé n° 12, Tyr-D Ala- Gly-Phe-Met-NH-(CH2)2-NH-SO2 -X, dans lequel X est un groupe 5 diméthylamino-α-naphtyle], for which, at iléon de cobaye (12 nM/l, contact time 3 minutes, read-out: % d'inhibition), the inhibition (usually the share of the control response that was lost under treatment) at 0.012 µM came out at 28.3%. In addition, on iléon de cobaye (18 nM/l, contact time 3 minutes, read-out: % d'inhibition), the inhibition at 0.018 µM is 35.5%. The inhibition at 0.024 µM at iléon de cobaye (24 nM/l, contact time 3 minutes, read-out: % d'inhibition) was found to be 51.3%. For the same compound, the inhibition at 0.06 µM on iléon de cobaye (60 nM/l, contact time 3 minutes, read-out: % d'inhibition) was found to be 76.3%. In addition, at iléon de cobaye, the “Activité Morphine =100” value came out at 147. The inhibition at 0.0012 µM on Vas déferens de souris (1,2 nM/l) stood at 41.8%. Further, the inhibition at 0.0018 µM on Vas déferens de souris (1,8 nM/l) is 50%. The inhibition at 0.0024 µM at Vas déferens de souris (2,4 nM/l) worked out at 63%. For the same compound, the “D.A. 50/ sous cut.” value in the data set with rat [2] (catalepsy, subcutaneous route, female rats) amounted to 5 mg/kg. Moreover, the “Nombre d'animaux non diarrhéiques” value in the data set with rat [1] (setting [5]) came to 6; with rat [1] (setting [6]) it was 10; with rat [1] (setting [7]), 10; in the data set with rat [1] (setting [8]), 3; in the data set on rat [1] (setting [9]), 6; in the data set with rat [1] (setting [10]), 10. In addition, in the data set with rat [1] (statement in words, 30 mg/kg, four hours), the “action antidiarrhéique” value is given as “protège tous les animaux”. The affinity in data set [3], expressed as Ki, was 5 ± 2 nM. The LD50 in data set [4] was determined as 725 ± 25 mg/kg. Also, the “coefficient d'activité” value with souris was around 35%.
`CC(C)C[C@H](NC(=O)[C@H](Cc1ccccc1)NC(=O)CNC(=O)CNC(=O)[C@@H](N)Cc1ccc(O)cc1)C(=O)O` [Leu-enképhaline, reference compound]: the Ki – broadly, the dissociation constant of the complex between target and ligand, obtained from inhibition or displacement – in data set [3] was 5 ± 1.8 nM.
In the case of `CSCC[C@H](NC(=O)[C@H](Cc1ccccc1)NC(=O)CNC(=O)[C@@H](C)NC(=O)[C@@H](N)Cc1ccc(O)cc1)C(=O)NCCCCCNS(=O)(=O)c1cccc2c(N(C)C)cccc12` [Dérivé n° 13], at iléon de cobaye (150 nM/l, contact time 3 minutes, read-out: % d'inhibition), the inhibition at 0.15 µM was determined as 34.2%. The inhibition at 0.3 µM on iléon de cobaye (300 nM/l, contact time 3 minutes, read-out: % d'inhibition) was determined as 46.4%. Besides, the inhibition at 0.6 µM at iléon de cobaye (600 nM/l, contact time 3 minutes, read-out: % d'inhibition) turned out to be 68.1%; at Vas déferens de souris (600 nM/l), 38%. Further, at iléon de cobaye, the “Activité Morphine =100” value is given as 12,7. The inhibition at 0.75 µM at Vas déferens de souris (750 nM/l) is 55%. The inhibition at 0.9 µM at Vas déferens de souris (900 nM/l) turned out to be 83.3%. Moreover, the inhibition at 1.5 µM on Vas déferens de souris (1 500 nM/l) worked out at 90.5%. The inhibition constant (Ki) in data set [3] is 21 ± 5 nM. Further, the LD50 in data set [4] was found to be 892 ± 31 mg/kg.
